Data on 20 molecules can be found in patent US20260137706A1, “METHODS OF TREATING INFLAMMATORY DISEASES” (INTERLINE THERAPEUTICS, INC., priority 2023, published 2026).

Broadly, the IC50 is the concentration needed to halve the response being measured.

Molecules are shown by their SMILES. Where two headings read alike, the source gives them in different places.

Assay [1] concerns NF-κB pathway (SEAP) in THP1-Dual cells. Description: THP-1 Dual cell SEAP assay (L18-MDP stimulated). Format: cell-based. Particulars: Homo sapiens, THP1-Dual, read-out: NF-κB THP1 IC50 bin. In outline: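 THP1-Dual cells (~25,000/well) were preincubated 30 min with serially diluted compounds, then stimulated with 10 ng/mL L18-MDP (final) for 20-24 h at 37 °C. Supernatant SEAP was read with QUANTI-Blue at OD 620-655 nm after 2 h. IC50 came from non-linear fits of % inhibition versus DMSO/L18-MDP controls after media-blank subtraction.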

Assay [2] has as its target T1, GST-RIPK2 fusion protein (human RIPK2, amino acids 1-310) (Homo sapiens, UniProt O43353).
T1 construct: made in house; host or cells: baculovirus infected Sf9 cells
Description: RIPK2 binding competition assay (TR-FRET, Tracer 199 displacement). In outline: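 GST-RIPK2 (human aa 1-310, Sf9-expressed; final 1 nM) with Tracer 199 (final 10 nM) and Tb-anti-GST (final 0.5 nM) in Tris pH 7.5 buffer, 45 min at 22 °C. TR-FRET 665/620 nm ratio after 337 nm excitation; normalized to no-inhibitor (0%) and no-protein (−100%), giving IC50.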
A general note: Time-resolved FRET reads energy transfer from a long-lived donor to a nearby acceptor.

The target of assay [3] is T2, binding of His-XIAP(BIR2)-avi fusion protein to GST-RIPK2 fusion protein (RIPK2/XIAP) (Homo sapiens, UniProt O43353).
T2 construct: made in house; host or cells: baculovirus infected Sf9 cells
The assay can be described thus: RIPK2-XIAP binding competition PPI assay (TR-FRET). Particulars: RIPK2/XIAP binding competition PPI assay; for Emax: Amax, read-out: PPI Amax bin. In outline:
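Compounds (in DMSO, 100-fold stock) incubated 120 min at 23 °C with 1 nM GST-RIPK2 (aa 1-310) and 25 nM His-XIAP(BIR2 aa 152-231)-avi, plus anti-His-XL665 and anti-GST-Tb, in pH 7.5 Tris buffer. Read-out: 665/520 nm emission ratio. Normalized to no-inhibitor (0%) and 50 nM GSK583 (−100%); Amax binned A–D.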

The mark [4] stands for this setting: 10 nM Tracer 199, 1 nM GST-RIPK2, read-out: RIPK2 IC50.

T1 sequence (O43353 1-310): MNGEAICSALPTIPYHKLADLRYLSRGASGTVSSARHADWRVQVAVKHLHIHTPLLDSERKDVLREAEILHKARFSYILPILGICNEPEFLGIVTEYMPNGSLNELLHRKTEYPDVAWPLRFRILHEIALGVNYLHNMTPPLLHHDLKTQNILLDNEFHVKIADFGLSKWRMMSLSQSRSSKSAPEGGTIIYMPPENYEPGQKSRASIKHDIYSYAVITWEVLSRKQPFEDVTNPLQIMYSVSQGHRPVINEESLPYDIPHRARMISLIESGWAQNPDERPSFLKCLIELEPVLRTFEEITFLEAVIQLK
T2 sequence (O43353 1-310 limits assumed): as the sequence (O43353 1-310) above

Take `CCS(=O)(=O)Nc1cc(-c2cnn3cc(OCCO)c(S(=O)(=O)C(C)(C)C)cc23)cc(F)c1OC` [Example 130, N-(5-(5-(tert-butylsulfonyl)-6-(2-hydroxyethoxy)pyrazolo[1,5-a]pyridin-3-yl)-3-fluoro-2-methoxyphenyl)ethanesulfonamide]: the IC50 in assay [1] was less than 50 nM; in assay [2] (setting [4]) it was less than 1 nM; in assay [3] (read-out: PPI IC50 bin) it was less than 1 nM. Also, the Emax in assay [3] is 55 to 80%.
Turning to `COc1cc2ncc(-c3cnc4c(c3)OCCN4C)n2cc1S(=O)(=O)C(C)(C)C` [Example 123, 7-(6-(tert-butylsulfonyl)-7-methoxyimidazo[1,2-a]pyridin-3-yl)-4-methyl-3,4-dihydro-2H-pyrido[3,2-b][1,4]oxazine], the IC50 in assay [1] is greater than 1000 nM; in assay [2] (setting [4]), greater than 20 nM; in assay [3] (read-out: PPI IC50 bin) it was greater than 20 nM. For the same molecule, the Emax in assay [3] lay in the range of 30 to 55%.
On to `COc1cc2ncc(-c3cnn4ncccc34)n2cc1S(=O)(=O)C(C)(C)C` [Example 114, 3-(6-(tert-butylsulfonyl)-7-methoxyimidazo[1,2-a]pyridin-3-yl)pyrazolo[1,5-b]pyridazine], for which the concentration for half-maximal inhibition (IC50) was greater than 1000 nM in assay [1], greater than 20 nM in assay [2] (setting [4]) and greater than 20 nM in assay [3] (read-out: PPI IC50 bin). The Emax in assay [3] is less than 30%.
Consider `COc1cc2ncc(-c3cccc(NS(=O)(=O)C4CC4)c3)n2cc1S(=O)(=O)C(C)(C)C` [Example 146, N-(3-(6-(tert-butylsulfonyl)-7-methoxyimidazo[1,2-a]pyridin-3-yl)phenyl)cyclopropanesulfonamide], for which the figures for the IC50 in assay [1], in assay [2] (setting [4]) and in assay [3] (read-out: PPI IC50 bin) were greater than 1000 nM, 2.5 to 20 nM and 2.5 to 20 nM, respectively. For the same molecule, the Emax in assay [3] was greater than 80%.
As for `COc1cc2ncc(-c3ccc4oc(N)nc4c3)n2cc1S(=O)(=O)C(C)(C)C` [Example 104, 5-(6-(tert-butylsulfonyl)-7-methoxyimidazo[1,2-a]pyridin-3-yl)benzo[d]oxazol-2-amine], the IC50 in assay [1] is greater than 1000 nM; in assay [2] (setting [4]) it was greater than 20 nM; in assay [3] (read-out: PPI IC50 bin), greater than 20 nM. Besides, the Emax in assay [3] lay in the range of 30 to 55%.
As for `CC(C)(C)S(=O)(=O)c1cn2c(-c3cc(F)c(N)nc3F)cnc2cc1OCC(CO)C(F)(F)F` (centres unmarked) [Example 57, 2-(((3-(6-amino-2,5-difluoropyridin-3-yl)-6-(tert-butylsulfonyl)imidazo[1,2-a]pyridin-7-yl)oxy)methyl)-3,3,3-trifluoropropan-1-ol], the IC50 in assay [1] was in the range of 250 to 1000 nM; in assay [2] (setting [4]), 2.5 to 20 nM; in assay [3] (read-out: PPI IC50 bin), 2.5 to 20 nM. In addition, the Emax in assay [3] is greater than 80%.
Take `C[C@@H](O)COc1cc2ncc(-c3cc(Cl)c(N)nc3F)n2cc1S(=O)(=O)C(C)(C)C` [Example 212, (R)-1-((3-(6-amino-5-chloro-2-fluoropyridin-3-yl)-6-(tert-butylsulfonyl)imidazo [1,2-a]pyridin-7-yl)oxy)propan-2-ol]: the values for the IC50 in assay [1], in assay [2] (setting [4]) and in assay [3] (read-out: PPI IC50 bin) were 50 to 250 nM, 1 to 2.5 nM and 1 to 2.5 nM, respectively. Besides, the Emax in assay [3] was greater than 80%.
For `COc1cc2ncc(-c3ccc4nc(N)ccc4c3)n2cc1S(=O)(=O)C(C)(C)C` [Example 89, 6-(6-(tert-butylsulfonyl)-7-methoxyimidazo[1,2-a]pyridin-3-yl)quinolin-2-amine], the IC50 in assay [1] was 250 to 1000 nM; in assay [2] (setting [4]), 2.5 to 20 nM; in assay [3] (read-out: PPI IC50 bin) it was greater than 20 nM. Also, the Emax in assay [3] was less than 30%.
Taken in the same sequence, the figures for `CC(C)(C)S(=O)(=O)c1cn2c(-c3cc(F)c(N)nc3F)cnc2cc1OCC1(O)CC1` [Example 177, 1-(((3-(6-amino-2,5-difluoropyridin-3-yl)-6-(tert-butylsulfonyl)imidazo[1,2-a]pyridin-7-yl)oxy)methyl)cyclopropan-1-ol] were 50 to 250 nM, 1 to 2.5 nM, 2.5 to 20 nM and greater than 80%.
Taken in the same sequence, the figures for `CCOc1cc2ncc(-c3cc4cc[nH]c4nc3F)n2cc1S(=O)(=O)C(C)C` [Example 238, 7-ethoxy-3-(6-fluoro-1H-pyrrolo[2,3-b]pyridin-5-yl)-6-(isopropylsulfonyl) imidazo[1,2-a]pyridine] were 50 to 250 nM, 1 to 2.5 nM, 1 to 2.5 nM and greater than 80%.
Taken in the same sequence, the figures for `COc1cc2ncc(-c3cc(F)c(OC)c4[nH]c(CN5CC(O)C5)nc34)n2cc1S(=O)(=O)C(C)(C)C` [Example 185, 1-((4-(6-(tert-butylsulfonyl)-7-methoxyimidazo[1,2-a]pyridin-3-yl)-6-fluoro-7-methoxy-1H-benzo[d]imidazol-2-yl)methyl)azetidin-3-ol] were 50 to 250 nM, 2.5 to 20 nM, 1 to 2.5 nM and 30 to 55%.
As for `CC(C)(C)S(=O)(=O)c1cn2c(-c3cc(F)c(N)nc3F)cnc2cc1OCC1(CO)CC1` [Example 56, (1-(((3-(6-amino-2,5-difluoropyridin-3-yl)-6-(tert-butylsulfonyl)imidazo[1,2-a]pyridin-7-yl)oxy)methyl)cyclopropyl)methanol], the IC50 in assay [1] was in the range of 50 to 250 nM; in assay [2] (setting [4]) it was 2.5 to 20 nM; in assay [3] (read-out: PPI IC50 bin) it was 2.5 to 20 nM. For the same molecule, the Emax in assay [3] was greater than 80%.
For the molecule `COc1cc2ncc(-c3cc(F)c(OC)c4c3cnn4CCO)n2cc1S(=O)(=O)C(C)(C)C` [Example 121, 2-(4-(6-(tert-butylsulfonyl)-7-methoxyimidazo[1,2-a]pyridin-3-yl)-6-fluoro-7-methoxy-1H-indazol-1-yl)ethan-1-ol], the IC50 is greater than 1000 nM in assay [1], greater than 20 nM in assay [2] (setting [4]) and greater than 20 nM in assay [3] (read-out: PPI IC50 bin). Moreover, the Emax in assay [3] lay in the range of 55 to 80%.
As for `COC(=O)Nc1ccc(-c2cnc3cc(OC)c(S(=O)(=O)C(C)(C)C)cn23)cn1` [Example 9, methyl (5-(6-(tert-butylsulfonyl)-7-methoxyimidazo[1,2-a]pyridin-3-yl)pyridin-2-yl)carbamate], the figures for the IC50 in assay [1], in assay [2] (setting [4]) and in assay [3] (read-out: PPI IC50 bin) were greater than 1000 nM, greater than 20 nM and greater than 20 nM, respectively. The Emax in assay [3] was less than 30%.
On to `COc1cc2ncc(-c3cc(F)c(OC)c(NS(=O)(=O)c4ccn(C)n4)c3)n2cc1S(=O)(=O)C(C)(C)C` [Example 134, N-(5-(6-(tert-butylsulfonyl)-7-methoxyimidazo[1,2-a]pyridin-3-yl)-3-fluoro-2-methoxyphenyl)-1-methyl-1H-pyrazole-3-sulfonamide], for which the IC50 in assay [1] is less than 50 nM; in assay [2] (setting [4]) it was 1 to 2.5 nM; in assay [3] (read-out: PPI IC50 bin) it was less than 1 nM. For the same molecule, the Emax in assay [3] is greater than 80%.
The matching figures for `C[C@H](CO)COc1cc2ncc(-c3cc(Cl)c(N)nc3F)n2cc1S(=O)(=O)C(C)(C)C` [Example 198, (R)-3-((3-(6-amino-5-chloro-2-fluoropyridin-3-yl)-6-(tert-butylsulfonyl)imidazo [1,2-a]pyridin-7-yl)oxy)-2-methylpropan-1-ol]: 50 to 250 nM, 1 to 2.5 nM, less than 1 nM and greater than 80%.
For the molecule `CC(C)(C)S(=O)(=O)c1cn2c(-c3cc(Cl)c(N)nc3F)cnc2cc1OCC(F)(F)CN` [Example 243, 5-(7-(3-amino-2,2-difluoropropoxy)-6-(tert-butylsulfonyl)imidazo [1,2-a]pyridin-3-yl)-3-chloro-6-fluoropyridin-2-amine], the IC50 in assay [1] is 50 to 250 nM; in assay [2] (setting [4]), 1 to 2.5 nM; in assay [3] (read-out: PPI IC50 bin), 1 to 2.5 nM. For the same molecule, the Emax in assay [3] was greater than 80%.
`CC(C)(O)COc1cc2ncc(-c3cc(F)c(N)nc3F)n2cc1S(=O)(=O)C(C)(C)C` [Example 28, 1-((3-(6-amino-2,5-difluoropyridin-3-yl)-6-(tert-butylsulfonyl)imidazo[1,2-a]pyridin-7-yl)oxy)-2-methylpropan-2-ol]: the IC50 in assay [1] lay in the range of 50 to 250 nM; in assay [2] (setting [4]), 1 to 2.5 nM; in assay [3] (read-out: PPI IC50 bin), 2.5 to 20 nM. Besides, in assay [3], the Emax is greater than 80%.
Turning to `C[C@@H](CO)Oc1cc2ncc(-c3cc(F)c(N)nc3F)n2cc1S(=O)(=O)C(C)(C)C` [Example 173, (S)-2-((3-(6-amino-2,5-difluoropyridin-3-yl)-6-(tert-butylsulfonyl)imidazo[1,2-a]pyridin-7-yl)oxy)propan-1-ol], the half-inhibitory concentration (IC50) in assay [1] was greater than 1000 nM; in assay [2] (RIPK2 IC50 (nM), 10 nM Tracer 199, 1 nM GST-RIPK2) it was 2.5 to 20 nM; in assay [3] (PPI IC50 bin), 2.5 to 20 nM. The Emax in assay [3] was greater than 80%.
For `CC(N)COc1cc2ncc(-c3cc(Cl)c(N)nc3F)n2cc1S(=O)(=O)C(C)(C)C` (centres unmarked) [Example 239, 5-(7-(2-aminopropoxy)-6-(tert-butylsulfonyl)imidazo [1,2-a]pyridin-3-yl)-3-chloro-6-fluoropyridin-2-amine], the half-maximal inhibitory concentration (IC50) in assay [1] lay within 250 to 1000 nM; in assay [2] (setting [4]), 2.5 to 20 nM; in assay [3] (read-out: PPI IC50 bin), 2.5 to 20 nM. Moreover, the Emax in assay [3] was greater than 80%.
